pIC50: −log10 of the molar value. Where “and” joins values, the source holds several entries; their conditions need not be identical. Equal values may be shown once.

The target of this test is Replicase polyprotein 1ab (Severe acute respiratory syndrome coronavirus 2, UniProt P0DTD1). Briefly: Functional biochemical assay to identify treatments for viral infectious disease that targets SARS-COV-2 nsp3 macrodomain, whereby the mechanism of action displaces an ADP-Ribose modified peptide from the binding site. Utilizing a time-resolved fluorescence method to measure binding by reading the emitted fluorescence intensity in two wavelengths.
With `CCNC(=O)c1cc2c(N[C@@H](c3ccc4c(c3)S(=O)(=O)CCC4)C(C)C)ncnc2[nH]1`, the negative logarithm of the IC50 (pIC50) was 7.25 and 7.00 and 7.70 and 7.47 and 7.72 and 7.48 and 7.28 and 7.49 and 7.38. As for `CC(C)[C@@H](Nc1ncnc2[nH]cc(C(=O)NC3CC3)c12)c1ccc2c(c1)S(=O)(=O)CCC2`, the negative logarithm of the IC50 (pIC50) is 6.59 and 6.84 and 6.82. Take `CC(C)[C@@H](Nc1ncnc2[nH]c(-c3cnn(CC(N)=O)c3)cc12)c1ccc2c(n1)OCCO2`: the pIC50 was 6.62 and 7.17 and 6.87. In the case of `CNC(=O)c1cc2c(N[C@@H](c3ccc4c(c3)S(=O)(=O)CCC4)C(C)C)ncnc2[nH]1`, the IC50 was 52 nM (2×) and 78 nM and 24 nM and 48 nM and 38 nM and 35 nM and 60 nM.

Take `CC(C)[C@@H](Nc1ncnc2[nH]c(-c3cnn(CC(=O)N(C)C)c3)cc12)c1ccc2c(c1)S(=O)(=O)CCC2`: the negative-log IC50 (pIC50) is 7.41 and 7.26 and 7.52 and 7.59 and 7.35 and 7.54 and 7.48. `Cc1nnc(CNC(=O)c2cc3c(N[C@@H](c4ccc5c(c4)OCCO5)C(C)C)ncnc3[nH]2)o1` had a pIC50 of 5.95.

As for `CC(C)[C@@H](Nc1ncnc2[nH]c(C(=O)NC3(CF)COC3)cc12)c1ccc2c(c1)OCCO2`, the negative-log IC50 (pIC50) is 5.90 and 5.76. The same measure, in the same setting: to `CC(C)[C@@H](Nc1ncnc2[nH]c(C(=O)NCc3ccno3)cc12)c1ccc2c(c1)OCCO2` belongs 6.10 and 6.08. `CC(C)[C@@H](Nc1ncnc2[nH]c(-c3cnn(C4(C(N)=O)CC4)c3)cc12)c1ccc2c(c1)OCCO2`: the pIC50 is 5.98 and 5.86 and 5.88. As to `CC(C)[C@@H](Nc1ncnc2[nH]c(C(=O)Nc3cn(C)nc3O)cc12)c1ccc2c(c1)OCCO2`, the pIC50 is 6.17 and 6.21. Same read-out and setting: then `Cc1ncn(C)c1NC(=O)c1cc2c(N[C@@H](c3ccc4c(c3)OCCO4)C(C)C)ncnc2[nH]1`, with 4.97 and 4.71; and `CC(C)[C@@H](Nc1ncnc2[nH]c([C@@H]3CCCNC3)cc12)c1ccc2c(c1)OCCO2`, with 5.46 and 5.26 and 5.28. Still for that read-out and setting: then `CC(C)[C@@H](Nc1ccnc2nn[nH]c12)c1ccc2c(c1)S(=O)(=O)CCC2`, with under 4.00; and `CC(C)[C@@H](Nc1ccnc2nccn12)c1ccc2c(c1)S(=O)(=O)CCC2`, with under 4.00.

Regarding `CC(C)[C@@H](Nc1ncnc2[nH]c(C(=O)NCc3c[nH]cn3)cc12)c1ccc2c(c1)OCCO2`, the negative logarithm of the IC50 (pIC50) was 5.94 and 5.59. On the same count and under the same terms, then `CC(C)[C@@H](Nc1ncnc2[nH]c([C@@]3(O)CCCNC3)cc12)c1ccc2c(c1)OCCO2`, with 4.75 and 4.86. `Cc1cc(CNC(=O)c2cc3c(N[C@@H](c4ccc5c(c4)OCCO5)C(C)C)ncnc3[nH]2)[nH]n1` showed a pIC50 of 5.92. The same measure, in the same setting: to `CC(C)[C@@H](Nc1ncnc2[nH]c(C(=O)NCC(C)(C)C#N)cc12)c1ccc2c(c1)OCCO2` belongs 5.68 and 5.37; to `CC(C)[C@@H](Nc1ncnc2[nH]c(C(=O)N[C@H]3[C@@H]4CN(C)C[C@@H]43)cc12)c1ccc2c(c1)OCCO2`, 5.96 and 5.69.

The compound `CC(C)[C@@H](Nc1ncnc2[nH]ccc12)c1cccc(S(C)(=O)=O)c1` gave a pIC50 of 4.02. The same measure, in the same setting: then `CO[C@@H]1CCC[C@H]1NC(=O)c1cc2c(N[C@@H](c3ccc4c(c3)OCCO4)C(C)C)ncnc2[nH]1`, with 5.99 and 5.87. As to `CC(C)[C@@H](Nc1ncnc2[nH]c(C(=O)NCCc3cnco3)cc12)c1ccc2c(c1)OCCO2`, the negative logarithm of the IC50 (pIC50) is 6.02 and 5.72. The same measure, in the same setting: then `CC(C)[C@@H](Nc1ncnc2[nH]c(C(=O)N[C@H]3[C@@H]4COC[C@@H]43)cc12)c1ccc2c(c1)OCCO2`, with 6.20 and 6.27; and `CC(C)[C@@H](Nc1ncnc2[nH]c(C(=O)NCCn3cncn3)cc12)c1ccc2c(c1)OCCO2`, with 5.75. For the compound `CC(C)[C@@H](Nc1ccnc2[nH]ncc12)c1ccc2c(c1)S(=O)(=O)CCC2`, the negative-log IC50 (pIC50) was under 4.00. On the same count and under the same terms, to `CC(C)[C@@H](Nc1ncnc2[nH]c(C(=O)Nc3cnccc3O)cc12)c1ccc2c(c1)OCCO2` belongs 5.00 and 4.75. In the case of `CNC(=O)c1c[nH]c2ncnc(N[C@@H](c3ccc4c(c3)NC(=O)CO4)C(C)C)c12`, the pIC50 is 6.51. Consider `CC(C)[C@@H](Nc1ncnc2[nH]c([C@@]3(O)CCOC3)cc12)c1ccc2c(c1)OCCO2`, for which the pIC50 is 5.00 and 4.64. `CC(C)[C@@H](c1ccc2c(c1)OCCO2)N(C)c1ncnc2[nH]c(-c3cnn(CC(N)=O)c3)cc12` showed a negative logarithm of the IC50 (pIC50) of 4.70. In the case of `CC(C)[C@@H](Nc1ncnc2[nH]ccc12)c1ccc(F)c(C#N)c1`, the negative logarithm of the IC50 (pIC50) was 5.38 and 4.78.

With `CC(C)[C@@H](Nc1n[nH]c2ncccc12)c1ccc2c(c1)S(=O)(=O)CCC2`, the pIC50 is 4.36. Consider `O=C(O)CC(NC(=O)c1ncnc2[nH]ccc12)c1ccc(NC2C[C@H]3CC(CO)C[C@@H]23)cc1` (stereo partly specified), for which the negative-log IC50 (pIC50) is under 4.00. For `Cc1cnn(C)c1NC(=O)c1cc2c(N[C@@H](c3ccc4c(c3)OCCO4)C(C)C)ncnc2[nH]1`, the pIC50 was 4.56 and < 4.00. Same read-out and setting: to `CCc1[nH]nnc1NC(=O)c1cc2c(N[C@@H](c3ccc4c(c3)OCCO4)C(C)C)ncnc2[nH]1` belongs 5.35 and 5.37; to `CC(C)[C@@H](Nc1ncnc2[nH]c(C(=O)NC[C@@H]3CCOC3)cc12)c1ccc2c(c1)OCCO2`, 6.24 and 5.94; to `CC(C)[C@@H](Nc1ncnc2[nH]c(C(=O)NCC3CN(C)C3)cc12)c1ccc2c(c1)OCCO2`, 6.06 and 6.10. For the compound `CNc1c[nH]c2ncnc(N[C@@H](c3ccc4c(c3)OCCO4)C(C)C)c12`, the pIC50 was 4.54. Turning to `CC(C)[C@@H](Nc1ncnc2[nH]c(-c3cnn([C@@H](C)C(N)=O)c3)cc12)c1ccc2c(c1)OCCO2`, the negative logarithm of the IC50 (pIC50) was 6.37 and 6.30. In the case of `CC(C)[C@@H](Nc1ncnc2[nH]c(C(=O)NCCC(F)F)cc12)c1ccc2c(c1)OCCO2`, the pIC50 is 6.08 and 5.87.

Turning to `COCCNC(=O)c1c[nH]c2ncnc(N[C@@H](c3ccc4c(c3)S(=O)(=O)CCC4)C(C)C)c12`, the pIC50 was 6.49. `Cc1n[nH]c(C)c1-c1cc2c(N[C@@H](c3ccc4c(c3)OCCO4)C(C)C)ncnc2[nH]1`: the pIC50 was 4.50. For `CC(C)[C@@H](Nc1cc(C(N)=O)ccn1)c1ccc2c(c1)S(=O)(=O)CCC2`, the pIC50 is under 4.00. Turning to `CC(C)[C@@H](Nc1ncnc2[nH]c(C(=O)NCC3(C#N)CC3)cc12)c1ccc2c(c1)OCCO2`, the pIC50 was 5.96 and 5.58.

For the compound `CC(C)[C@@H](Nc1nccc2[nH]c(=O)[nH]c12)c1ccc2c(c1)S(=O)(=O)CCC2`, the pIC50 was under 4.00.

In the case of `CC(C)[C@@H](Nc1ncnc2[nH]ccc12)c1ccc2nn[nH]c2c1`, the pIC50 is 5.46 and 5.39.

As to `O=C1NCCc2ccc(CNc3ncnc4[nH]ccc34)cc21`, the pIC50 was under 4.00. Still for that read-out and setting: to `COc1ccc([C@@H](NC(=O)c2ncnc3[nH]ccc23)C(C)(C)C#N)cc1` belongs under 4.00; to `CC(C)[C@@H](Nc1ncnc2[nH]c(C(=O)NCc3cnco3)cc12)c1ccc2c(c1)OCCO2`, 6.19 and 5.75; to `CC(C)[C@@H](Nc1ncnc2[nH]c(C(=O)NCC3=NCCCN3)cc12)c1ccc2c(c1)OCCO2`, 5.43 and 5.11. With `CC(C)[C@@H](Nc1ncnc2[nH]c(C(=O)Nc3cnoc3)cc12)c1ccc2c(c1)OCCO2`, the pIC50 was 5.71 and 5.24. The same measure, in the same setting: to `CC(C)[C@@H](Nc1ncnc2[nH]c(C(=O)NCc3ncccn3)cc12)c1ccc2c(c1)OCCO2` belongs 5.53 and 5.23; to `COc1nc(NC(=O)c2cc3c(N[C@@H](c4ccc5c(c4)OCCO5)C(C)C)ncnc3[nH]2)n[nH]1`, 4.33; to `CC(=O)N1CC(NC(=O)c2cc3c(N[C@@H](c4ccc5c(c4)OCCO5)C(C)C)ncnc3[nH]2)C1`, 6.10 and 5.70.

As for `CC(C)[C@@H](Nc1ncnc2[nH]c(C(=O)NCC3(F)CC3)cc12)c1ccc2c(c1)OCCO2`, the pIC50 is 5.87 and 5.70. Same read-out and setting: to `CC(C)[C@@H](Nc1ncnc2[nH]c(C3=CCCN(C(=O)OCc4ccccc4)C3)cc12)c1ccc2c(c1)OCCO2` belongs under 4.00; to `CNc1cc(N[C@@H](c2ccc3c(c2)S(=O)(=O)CCC3)C(C)C)ncn1`, 5.22; to `CC(C)[C@@H](Nc1ncnc2[nH]c(C(=O)NCCc3c[nH]nn3)cc12)c1ccc2c(c1)OCCO2`, 5.89 and 6.02.

For `CC(C)[C@@H](Nc1ncnc2[nH]c(C(=O)NCc3nncn3C)cc12)c1ccc2c(c1)OCCO2`, the pIC50 is 5.86 and 5.91. The same measure, in the same setting: then `Cc1ccc([C@@H](Nc2ncnc3[nH]ccc23)C(C)C)cc1S(C)(=O)=O`, with 5.14 and 4.95; and `CC(C)[C@@H](Nc1cnc2[nH]cnc2c1)c1ccc2c(c1)S(=O)(=O)CCC2`, with under 4.00. Still for that read-out and setting: then `CC(C)[C@@H](Nc1ncnc2[nH]c(C(=O)Nc3ncco3)cc12)c1ccc2c(c1)OCCO2`, with 5.14 and 5.23; and `Cc1cc(-c2cc3c(N[C@@H](c4ccc5c(c4)OCCO5)C(C)C)ncnc3[nH]2)co1`, with 5.06 and 4.87 and 4.77; and `Cc1ncc(CNC(=O)c2cc3c(N[C@@H](c4ccc5c(c4)OCCO5)C(C)C)ncnc3[nH]2)o1`, with 6.16 and 6.21.

On to `CC(C)[C@@H](Nc1ncnc2[nH]c(C(=O)NCC3(CO)CCC3)cc12)c1ccc2c(c1)OCCO2`, for which the pIC50 is 5.89 and 5.63.

For `CC(C)[C@@H](c1ccc2c(c1)OCCO2)N(C)c1ncnc2[nH]c(Br)cc12`, the pIC50 was under 4.00. On the same count and under the same terms, then `CC(C)[C@@H](Nc1ncnc2[nH]c(C(=O)NCCC3CN(C)C3)cc12)c1ccc2c(c1)OCCO2`, with 6.05; and `CC(C)[C@@H](Nc1ncnc2[nH]c(C(=O)N[C@@H]3CCN(C)C3)cc12)c1ccc2c(c1)OCCO2`, with 6.38 and 6.30. On the same count and under the same terms, to `CC(C)[C@@H](Nc1ncnc2[nH]c(C(=O)O)cc12)c1ccc2c(c1)OCCO2` belongs 4.93 and 4.94; to `CC(C)[C@@H](Nc1ncnc2[nH]c(C(=O)NCc3ccn(C)n3)cc12)c1ccc2c(c1)OCCO2`, 6.02 and 5.98; to `CC(C)[C@@H](Nc1ncnc2[nH]c(C(=O)NC3COC3)cc12)c1ccc2c(c1)OCCO2`, 6.13 and 5.81. The same measure, in the same setting: to `CC(C)[C@@H](Nc1ncnc2[nH]c(C(=O)NCCc3cn[nH]c3)cc12)c1ccc2c(c1)OCCO2` belongs 5.87 and 5.47; to `CC(C)[C@@H](Nc1ncnc2[nH]c(C(=O)NC3CN(C)C3)cc12)c1ccc2c(c1)OCCO2`, 5.84 and 5.49.

Regarding `COCCC1(NC(=O)c2cc3c(N[C@@H](c4ccc5c(c4)OCCO5)C(C)C)ncnc3[nH]2)CC1`, the negative logarithm of the IC50 (pIC50) is 5.55 and 5.35. As for `CC(C)[C@@H](Nc1ncnc2[nH]c(C(=O)NC34CC(C#N)(C3)C4)cc12)c1ccc2c(c1)OCCO2`, the pIC50 was 5.87 and 5.71. Regarding `CC(C)[C@@H](Nc1ncnc2[nH]c(C(=O)Nc3cn[nH]c3)cc12)c1ccc2c(c1)OCCO2`, the pIC50 was 5.59. In turn, `COc1cn[nH]c1NC(=O)c1cc2c(N[C@@H](c3ccc4c(c3)OCCO4)C(C)C)ncnc2[nH]1` had a pIC50 of 4.14.

The values above are taken from ChEMBL document CHEMBL5441456, “ASAP - SARS-CoV-2 nsp3 macrodomain dose response” (2024).
